Measurements from PubChem BioAssay AID330 (DTP/NCI, 2004).
“And” between values parts separate entries of the source, which are not always exact repeats. Identical values can stand only once. Inconclusive results and toxic doses are left out. Peptide text beside a SMILES is read from it.

Tested on: P388 leukemia ip, CD2F1 mice, survival T/C
Assay: NCI In Vivo Anticancer Drug Screen. Data for tumor model P388 Leukemia (intraperitoneal) in CD2F1 (CDF1) mice
Settings: endpoint: median survival time, higher = longer survival
Procedure, shortened: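 Mice carrying the transplanted tumor received test compound or vehicle. Survival was recorded in each group, and the value is the treated-group measurement divided by that of the vehicle-treated control group.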

[1] = dose: 50.0 mg/kg/injection, schedule: Q01DX005 (ip), vehicle: saline with Tween-80
[2] = dose: 100.0 mg/kg/injection, schedule: Q01DX005 (ip), vehicle: saline with Tween-80
[3] = dose: 200.0 mg/kg/injection, schedule: Q01DX005 (ip), vehicle: saline with Tween-80
[4] = dose: 25.0 mg/kg/injection, schedule: Q01DX005 (ip), vehicle: saline
[5] = dose: 50.0 mg/kg/injection, schedule: Q01DX005 (ip), vehicle: saline
[6] = dose: 100.0 mg/kg/injection, schedule: Q01DX005 (ip), vehicle: saline
[7] = dose: 3.12 mg/kg/injection, schedule: Q01DX009 (ip), vehicle: Klucel (hydroxypropylcellulose) (HPC)
[8] = dose: 6.25 mg/kg/injection, schedule: Q01DX009 (ip), vehicle: Klucel (hydroxypropylcellulose) (HPC)
[9] = dose: 12.5 mg/kg/injection, schedule: Q01DX009 (ip), vehicle: Klucel (hydroxypropylcellulose) (HPC)
[10] = dose: 25.0 mg/kg/injection, schedule: Q01DX009 (ip), vehicle: other
[11] = dose: 50.0 mg/kg/injection, schedule: Q01DX005 (ip), vehicle: Klucel (hydroxypropylcellulose) (HPC)
[12] = dose: 100.0 mg/kg/injection, schedule: Q01DX005 (ip), vehicle: Klucel (hydroxypropylcellulose) (HPC)
[13] = dose: 200.0 mg/kg/injection, schedule: Q01DX005 (ip), vehicle: Klucel (hydroxypropylcellulose) (HPC)
[14] = dose: 100.0 mg/kg/injection, schedule: Q01DX001 (ip), vehicle: Klucel (hydroxypropylcellulose) (HPC)
[15] = dose: 60.0 mg/kg/injection, schedule: Q01DX005 (ip), vehicle: Klucel (hydroxypropylcellulose) (HPC)
[16] = dose: 120.0 mg/kg/injection, schedule: Q01DX005 (ip), vehicle: Klucel (hydroxypropylcellulose) (HPC)
[17] = dose: 240.0 mg/kg/injection, schedule: Q01DX005 (ip), vehicle: Klucel (hydroxypropylcellulose) (HPC)
[18] = dose: 30.0 mg/kg/injection, schedule: Q01DX005 (ip), vehicle: saline with Tween-80
[19] = dose: 60.0 mg/kg/injection, schedule: Q01DX005 (ip), vehicle: saline with Tween-80
[20] = dose: 120.0 mg/kg/injection, schedule: Q01DX005 (ip), vehicle: saline with Tween-80
[21] = dose: 240.0 mg/kg/injection, schedule: Q01DX005 (ip), vehicle: saline with Tween-80
[22] = dose: 15.0 mg/kg/injection, schedule: Q01DX005 (ip), vehicle: saline with Tween-80

O=C1C(=O)N(c2ccccc2)N=C1N=Nc1ccccc1
T/C [1]: 110 % of control and 115 % of control | T/C [2]: 108 % of control and 114 % of control | T/C [3]: 117 % of control and 120 % of control | T/C (dose: 400.0 mg/kg/injection, schedule: Q01DX005 (ip), vehicle: saline with Tween-80): 109 % of control

O=C(O)c1ccc(O)c(O)c1.[NH2-].[NH2-].[NH2-].[NH2-].[Ru+4]
T/C (dose: 87.5 mg/kg/injection, schedule: Q04DX002 (ip), vehicle: saline): 104 % of control | T/C (dose: 175.0 mg/kg/injection, schedule: Q04DX002 (ip), vehicle: saline): 108 % of control | T/C (dose: 350.0 mg/kg/injection, schedule: Q04DX002 (ip), vehicle: saline): 105 % of control

NC(CCC(=O)NC(CS)C(=O)NCC(=O)O)C(=O)O (stereo not drawn)
T/C [4]: 102 % of control | T/C [5]: 104 % of control and 108 % of control | T/C [6]: 98 % of control and 94 % of control | T/C (dose: 200.0 mg/kg/injection, schedule: Q01DX005 (ip), vehicle: saline): 102 % of control | T/C (dose: 400.0 mg/kg/injection, schedule: Q01DX005 (ip), vehicle: saline): 93 % of control

CC1(C)CN(c2ccccc2)N(CN2CCOCC2)C1=O
T/C [7]: 103 % of control | T/C [8]: 97 % of control | T/C [9]: 104 % of control

COC(=O)C1=C(C(=O)OC)C(C)(C)N=N1
T/C (dose: 5.3 mg/kg/injection, schedule: Q01DX009 (ip), vehicle: other): 111 % of control | T/C (dose: 8.0 mg/kg/injection, schedule: Q01DX009 (ip), vehicle: other): 117 % of control | T/C (dose: 12.0 mg/kg/injection, schedule: Q01DX009 (ip), vehicle: other): 114 % of control | T/C (dose: 18.0 mg/kg/injection, schedule: Q01DX009 (ip), vehicle: other): 112 % of control | T/C [10]: 99 % of control

N#Cc1cn(Cc2ccccc2)c2ccccc2c1=O
T/C [11]: 100 % of control | T/C [12]: 103 % of control | T/C [13]: 103 % of control

CCOC(=O)C1=C(C)O/C(=C/c2ccc(OC)cc2)C1=O
T/C (dose: 50.0 mg/kg/injection, schedule: Q01DX009 (ip), vehicle: Klucel (hydroxypropylcellulose) (HPC)): 98 % of control | T/C (dose: 100.0 mg/kg/injection, schedule: Q01DX009 (ip), vehicle: Klucel (hydroxypropylcellulose) (HPC)): 93 % of control | T/C (dose: 200.0 mg/kg/injection, schedule: Q01DX009 (ip), vehicle: Klucel (hydroxypropylcellulose) (HPC)): 100 % of control

Cc1c2c(n(C)c1C)C(=O)C=CC2=O
T/C (dose: 50.0 mg/kg/injection, schedule: Q01DX001 (ip), vehicle: Klucel (hydroxypropylcellulose) (HPC)): 100 % of control | T/C [14]: 113 % of control

Cc1ccc(S(=O)(=O)NC(=O)n2nc(C)cc2C)cc1
T/C [11]: 96 % of control | T/C [12]: 96 % of control | T/C [13]: 103 % of control

C1=CC(=CN2CCc3ccccc3C2)C=C1
T/C [15]: 101 % of control | T/C [16]: 102 % of control | T/C [17]: 103 % of control

N#Cc1c(-c2ccccc2)nc2n1CCS2
T/C [14]: 102 % of control | T/C (dose: 200.0 mg/kg/injection, schedule: Q01DX001 (ip), vehicle: Klucel (hydroxypropylcellulose) (HPC)): 100 % of control | T/C (dose: 400.0 mg/kg/injection, schedule: Q01DX001 (ip), vehicle: Klucel (hydroxypropylcellulose) (HPC)): 100 % of control

CCOC(=O)C1=C(C(=O)c2ccccc2)C(c2cccc([N+](=O)[O-])c2)C(C(=O)c2ccccc2)=C(C(=O)OCC)N1
T/C [18]: 104 % of control | T/C [19]: 104 % of control | T/C [20]: 104 % of control | T/C [21]: 104 % of control

CCCCCCCNc1nn[nH]n1
T/C [11]: 100 % of control | T/C [12]: 104 % of control | T/C [13]: 98 % of control

COc1ccc(-n2[nH]c3c(cnc4ccccc43)c2=O)cc1
T/C [22]: 87 % of control | T/C [18]: 87 % of control | T/C [19]: 90 % of control | T/C [20]: 100 % of control | T/C [21]: 94 % of control

CCCCN(CCCC)CC(C)(O)CNc1cc(OC)cc2cccnc12 (stereo not drawn)
T/C [4]: 101 % of control | T/C [5]: 107 % of control | T/C [6]: 98 % of control

CCC(C)C(N)C(=O)NC(Cc1ccc(O)cc1)C(=O)O (stereo not drawn) (H-Ile-Tyr-OH; configuration not given here)
T/C [15]: 97 % of control | T/C [16]: 96 % of control | T/C [17]: 99 % of control

Cc1cc2oc(=O)cc(C(=O)O)c2c(=O)o1
T/C (dose: 100.0 mg/kg/injection, schedule: Q04DX003 (ip), vehicle: Klucel (hydroxypropylcellulose) (HPC)): 102 % of control | T/C (dose: 200.0 mg/kg/injection, schedule: Q04DX003 (ip), vehicle: Klucel (hydroxypropylcellulose) (HPC)): 95 % of control | T/C (dose: 400.0 mg/kg/injection, schedule: Q04DX003 (ip), vehicle: Klucel (hydroxypropylcellulose) (HPC)): 87 % of control

COc1cccc2c1C(=O)c1c(O)c3c(c(O)c1C2=O)C[C@@](O)(/C(C)=N\NC(N)=O)C[C@@H]3OC1CC(N)C(O)C(C)O1 (stereo partly drawn)
T/C (dose: 1.56 mg/kg/injection, schedule: Q01DX009 (ip), vehicle: saline): 95 % of control

COc1cc(/C=C2\N=C(C)OC2=O)ccc1O
T/C [11]: 106 % of control | T/C [12]: 101 % of control | T/C [13]: 104 % of control

O=c1c2[nH]c3ccccc3sc=2c(=O)n1-c1cccc(C(F)(F)F)c1
T/C [1]: 104 % of control | T/C [2]: 100 % of control | T/C [3]: 101 % of control

CCCCn1/c(=N/N=Nc2ccccc2)sc2ccccc21
T/C (dose: 7.5 mg/kg/injection, schedule: Q01DX005 (ip), vehicle: saline with Tween-80): 115 % of control | T/C [22]: 117 % of control | T/C [18]: 118 % of control

O=C(NC(c1ccccc1)N1CCOCC1)c1ccccc1 (stereo not drawn)
T/C (dose: 50.0 mg/kg/injection, schedule: Q01DX005 (ip), vehicle: Klucel + Tween-80): 108 % of control | T/C (dose: 100.0 mg/kg/injection, schedule: Q01DX005 (ip), vehicle: Klucel + Tween-80): 112 % of control | T/C (dose: 200.0 mg/kg/injection, schedule: Q01DX005 (ip), vehicle: Klucel + Tween-80): 114 % of control

CS(=O)(=O)N1C2CC3CCCCC3CC21 (stereo not drawn)
T/C (dose: 25.0 mg/kg/injection, schedule: Q04DX002 (ip), vehicle: saline with Tween-80): 99 % of control | T/C (dose: 50.0 mg/kg/injection, schedule: Q04DX002 (ip), vehicle: saline with Tween-80): 99 % of control | T/C (dose: 100.0 mg/kg/injection, schedule: Q04DX002 (ip), vehicle: saline with Tween-80): 105 % of control and 110 % of control | T/C (dose: 200.0 mg/kg/injection, schedule: Q04DX002 (ip), vehicle: saline with Tween-80): 112 % of control | T/C (dose: 400.0 mg/kg/injection, schedule: Q04DX002 (ip), vehicle: saline with Tween-80): 112 % of control

Cc1cc(NCCCNCCCNc2cc(C)nc3cc([N+](=O)[O-])ccc23)c2ccc([N+](=O)[O-])cc2n1
T/C (dose: 12.5 mg/kg/injection, schedule: Q01DX009 (ip), vehicle: other): 150 % of control | T/C [10]: 121 % of control

C=CC(C)CC(N)C(=O)O (stereo not drawn)
T/C (dose: 60.0 mg/kg/injection, schedule: Q01DX005 (ip), vehicle: saline): 123 % of control | T/C (dose: 120.0 mg/kg/injection, schedule: Q01DX005 (ip), vehicle: saline): 105 % of control | T/C (dose: 240.0 mg/kg/injection, schedule: Q01DX005 (ip), vehicle: saline): 104 % of control

N#CN=[N+]([O-])c1ccc(Cl)cc1
T/C [7]: 107 % of control | T/C [8]: 114 % of control | T/C (dose: 6.25 mg/kg/injection, schedule: Q04DX003 (ip), vehicle: Klucel (hydroxypropylcellulose) (HPC)): 97 % of control | T/C [9]: 98 % of control | T/C (dose: 12.5 mg/kg/injection, schedule: Q04DX003 (ip), vehicle: Klucel (hydroxypropylcellulose) (HPC)): 95 % of control | T/C (dose: 25.0 mg/kg/injection, schedule: Q04DX003 (ip), vehicle: Klucel (hydroxypropylcellulose) (HPC)): 98 % of control

CCOC(=O)C1=C(C)/C(=C\c2[nH]c(C)c(C(=O)OCC)c2C)N=C1C
T/C [19]: 103 % of control | T/C [20]: 94 % of control | T/C [21]: 96 % of control

O=C1CN(CO)C(=O)N1CO
T/C (dose: 25.0 mg/kg/injection, schedule: Q01DX005 (ip), vehicle: Klucel (hydroxypropylcellulose) (HPC)): 114 % of control | T/C [11]: 116 % of control and 117 % of control | T/C [12]: 116 % of control
